One assay relates to Leishmania braziliensis. The experiment in a line: Antileishmanial activity against promastigote form of Leishmania braziliensis assessed as parasite growth inhibition. Format: functional.
The test system of assay [1] is Mycobacterium tuberculosis. The experiment in a line: Antimycobacterial activity against Mycobacterium tuberculosis H37Rv assessed as bacterial growth inhibition by microplate alamar blue assay. Format: functional. A general note: Alamar Blue is a resazurin reagent that responds to reducing activity.
The subject of a further assay is Plasmodium falciparum. The experiment in a line: Antimalarial activity against chloroquine-resistant Plasmodium falciparum assessed as parasite growth inhibition measured for 24 to 72 hrs. Format: functional, organism-based.

≈ marks a conversion by molar mass, not a printed value.

The term IC90 denotes the concentration needed for an effect of 90%. As a reminder, the MIC is the least concentration at which growth counts as inhibited. Broadly, the IC50 is the concentration that inhibits the measured activity by half.

Regarding `CC1OC1c1ccc2ccccc2n1` (stereo unspecified), the IC90 in the assay on Leishmania braziliensis was determined as 25 µg/mL (≈ 135 µM).
Same read-out and setting: as for `CCCc1ccc2ccccc2n1`, the figure is 20 µg/mL (≈ 117 µM).
Consider `COc1ccc(-c2nc3ncccc3c3ccoc23)cc1`, for which the MIC in assay [1] was found to be 5.6 µM.
As for `CN1c2ccccc2CCC1CCc1ccc2c(c1)OCO2` (stereo unspecified), in the assay on Plasmodium falciparum, the IC50 was 276 nM.
`C/C=C/c1ccc2ccccc2n1` [CHIMANINE B]: in the assay with Leishmania braziliensis, the IC90 is 25 µg/mL (≈ 148 µM).
Regarding `CC[C@@H](CO)NCCN[C@@H](CC)CO` [ETHAMBUTOL], the minimum inhibitory concentration (MIC) in assay [1] came out at 7.6 µM.

(Values after ChEMBL document CHEMBL5096154, “A comprehensive review on the biological interest of quinoline and its derivatives” (Bioorg Med Chem, 2021).)
